Measurements as given in patent publication US20230024302A1, “2,3,5-TRISUBSTITUTED PYRAZOLO[1,5-A]PYRIMIDINE COMPOUNDS” (Arcus Biosciences, Inc., priority 2019, published 2023).

Legend:
PI3Kγ = biological target: T1, PI3Kγ (Homo sapiens, UniProt P48736); assay: PI3Kγ cellular assay in THP-1 cells (AKT pS473 AlphaLISA); assay type: cell-based; conditions: Table 1, rhMCP-1 stimulated AKT pS473, read-out: cellular potency (PI3Kγ IC50)
T1 construct: host or cells: THP-1
How it was run: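 Serum-starved THP-1 cells (1.8×10^5/well, serum-free DMEM) treated with compounds from 4 nM to 30 μM in 2% DMSO, then stimulated and lysed.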

PI3Kγ (p120γ) = biological target: T2, PI3Kγ (p120γ) (Homo sapiens, UniProt P48736); assay: Inhibition of PI3K kinase activity (ADP Glo), PI3Kγ; conditions: Table 1, p120γ, read-out: biochemical potency (PI3Kγ IC50)
T2 construct: purchased Promega V1761
T2 sequence (P48736 whole entry): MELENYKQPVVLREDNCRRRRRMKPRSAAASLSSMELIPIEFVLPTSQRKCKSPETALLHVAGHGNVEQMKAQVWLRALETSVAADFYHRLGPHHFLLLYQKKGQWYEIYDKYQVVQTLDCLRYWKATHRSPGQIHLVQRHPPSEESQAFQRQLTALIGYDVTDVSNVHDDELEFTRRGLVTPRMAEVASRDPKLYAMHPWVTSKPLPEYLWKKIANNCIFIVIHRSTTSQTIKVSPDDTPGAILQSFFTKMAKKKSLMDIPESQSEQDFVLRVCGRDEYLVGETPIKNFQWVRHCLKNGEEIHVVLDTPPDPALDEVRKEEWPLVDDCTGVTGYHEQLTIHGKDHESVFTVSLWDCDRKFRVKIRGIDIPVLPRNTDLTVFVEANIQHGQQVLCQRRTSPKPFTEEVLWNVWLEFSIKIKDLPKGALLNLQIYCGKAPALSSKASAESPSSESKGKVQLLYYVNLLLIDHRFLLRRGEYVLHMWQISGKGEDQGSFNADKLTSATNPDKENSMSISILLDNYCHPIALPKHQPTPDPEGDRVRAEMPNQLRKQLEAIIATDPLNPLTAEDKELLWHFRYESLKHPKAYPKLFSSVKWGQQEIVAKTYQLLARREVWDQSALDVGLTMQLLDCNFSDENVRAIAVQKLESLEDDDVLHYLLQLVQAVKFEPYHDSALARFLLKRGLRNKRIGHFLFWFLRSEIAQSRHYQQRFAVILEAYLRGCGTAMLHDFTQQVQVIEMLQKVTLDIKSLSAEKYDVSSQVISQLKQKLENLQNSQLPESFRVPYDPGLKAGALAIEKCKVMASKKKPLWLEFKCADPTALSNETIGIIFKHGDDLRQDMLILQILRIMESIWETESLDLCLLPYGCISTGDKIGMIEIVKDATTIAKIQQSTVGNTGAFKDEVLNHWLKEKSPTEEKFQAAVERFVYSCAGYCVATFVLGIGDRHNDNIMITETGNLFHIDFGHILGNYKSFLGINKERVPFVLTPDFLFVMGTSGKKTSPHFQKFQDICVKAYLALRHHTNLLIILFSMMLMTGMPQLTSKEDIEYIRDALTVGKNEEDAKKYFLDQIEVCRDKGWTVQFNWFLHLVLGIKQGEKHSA
How it was run: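 Recombinant p120γ (8 nM, 2× stock) was preincubated with compound for 1 h at rt in HEPES pH 7.4, NaCl, MgCl2 and 0.05% BSA. Reaction was started with PIP2 (0.1 mg/ml, 2×) and ATP (50 μM, 2×) and ran 60 min at rt. ADP formed was read by ADP-Glo luminescence, and IC50 came from a 4-parameter fit.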

T1 sequence (P48736 whole entry): as above

IC50 (PI3Kγ) [nM]	IC50 (PI3Kγ (p120γ)) [nM]	Structure (SMILES)
< 100	< 100	CC(C)[C@H](CO)NC(=O)c1c(N)nn2ccc(-c3cc4c(c(NS(C)(=O)=O)c3)C(=O)N([C@@H](C)C3CC3)C4)nc12 [Example 96, 2-Amino-5-{2-[(1S)-1-cyclopropylethyl]-7-methanesulfonamido-1-oxo-2,3-dihydro-1H-isoindol-5-yl}-N-[(2R)-1-hydroxy-3-methylbutan-2-yl]pyrazolo[1,5-a]pyrimidine-3-carboxamide]
< 100	< 100	C[C@@H](C1CC1)N1Cc2cc(-c3ccn4nc(N)c(C(=O)N[C@@H](CO)C5CC5)c4n3)cc(NS(C)(=O)=O)c2C1=O [Example 97, 2-Amino-N-((R)-1-cyclopropyl-2-hydroxyethyl)-5-(2-((S)-1-cyclopropylethyl)-7-(methylsulfonamido)-1-oxoisoindolin-5-yl)pyrazolo[1,5-a]pyrimidine-3-carboxamide]
< 100	< 100	C[C@@H](NC(=O)c1c(N)nn2ccc(-c3cc4c(c(NS(C)(=O)=O)c3)C(=O)N([C@@H](C)C3CC3)C4)nc12)c1cnn(C)c1 [Example 98, 2-Amino-5-{2-[(1S)-1-cyclopropylethyl]-7-methanesulfonamido-1-oxo-2,3-dihydro-1H-isoindol-5-yl}-N-[(1R)-1-(1-methyl-1H-pyrazol-4-yl)ethyl]pyrazolo[1,5-a]pyrimidine-3-carboxamide]
< 100	< 100	C[C@@H](C1CC1)N1Cc2cc(-c3ccn4nc(N)c(C(=O)Nc5cccnc5)c4n3)cc(NS(C)(=O)=O)c2C1=O [Example 99, (S)-2-Amino-5-(2-(1-cyclopropylethyl)-7-(methylsulfonamido)-1-oxoisoindolin-5-yl)-N-(pyridin-3-yl)pyrazolo[1,5-a]pyrimidine-3-carboxamide]
< 100	< 100	C[C@@H](C1CC1)N1Cc2cc(-c3ccn4nc(N)c(C(=O)Nc5ccncc5)c4n3)cc(NS(C)(=O)=O)c2C1=O [Example 100, (S)-2-Amino-5-(2-(1-cyclopropylethyl)-7-(methylsulfonamido)-1-oxoisoindolin-5-yl)-N-(pyridin-4-yl)pyrazolo[1,5-a]pyrimidine-3-carboxamide]
< 100	< 100	Cc1cc(NC(=O)c2c(N)nn3ccc(-c4cc5c(c(NS(C)(=O)=O)c4)C(=O)N([C@@H](C)C4CC4)C5)nc23)ccn1 [Example 101, (S)-2-Amino-5-(2-(1-cyclopropylethyl)-7-(methylsulfonamido)-1-oxoisoindolin-5-yl)-N-(2-methylpyridin-4-yl)pyrazolo[1,5-a]pyrimidine-3-carboxamide]
< 100	< 100	Cc1cc(NC(=O)c2c(N)nn3ccc(-c4cc5c(c(NS(C)(=O)=O)c4)C(=O)N([C@@H](C)C4CC4)C5)nc23)cc(C)n1 [Example 102, (S)-2-Amino-5-(2-(1-cyclopropylethyl)-7-(methylsulfonamido)-1-oxoisoindolin-5-yl)-N-(2,6-dimethylpyridin-4-yl)pyrazolo[1,5-a]pyrimidine-3-carboxamide]
< 100	< 100	C[C@@H](C1CC1)N1Cc2cc(-c3ccn4nc(N)c(C(=O)Nc5ccc(C(C)(C)O)nc5)c4n3)cc(NS(C)(=O)=O)c2C1=O [Example 103, 2-Amino-5-{2-[(1S)-1-cyclopropylethyl]-7-methanesulfonamido-1-oxo-2,3-dihydro-1H-isoindol-5-yl}-N-[6-(2-hydroxypropan-2-yl)pyridin-3-yl]pyrazolo[1,5-a]pyrimidine-3-carboxamide]
< 100	< 100	C[C@@H](C1CC1)N1Cc2cc(-c3ccn4nc(N)c(C(=O)Nc5ccccc5)c4n3)cc(NS(C)(=O)=O)c2C1=O [Example 104, (S)-2-Amino-5-(2-(1-cyclopropylethyl)-7-(methylsulfonamido)-1-oxoisoindolin-5-yl)-N-phenylpyrazolo[1,5-a]pyrimidine-3-carboxamide]
< 100	< 100	C[C@@H](C1CC1)N1Cc2cc(-c3ccn4nc(N)c(C(=O)Nc5ccc(CO)cc5)c4n3)cc(NS(C)(=O)=O)c2C1=O [Example 105, 2-Amino-5-{2-[(1S)-1-cyclopropylethyl]-7-methanesulfonamido-1-oxo-2,3-dihydro-1H-isoindol-5-yl}-N-[4-(hydroxymethyl)phenyl]pyrazolo[1,5-a]pyrimidine-3-carboxamide]
< 100	< 100	C[C@@H](C1CC1)N1Cc2cc(-c3ccn4nc(N)c(C(=O)Nc5cnn(CC(F)(F)F)c5)c4n3)cc(NS(C)(=O)=O)c2C1=O [Example 106, 2-Amino-5-{2-[(1S)-1-cyclopropylethyl]-7-methanesulfonamido-1-oxo-2,3-dihydro-1H-isoindol-5-yl}-N-[1-(2,2,2-trifluoroethyl)-1H-pyrazol-4-yl]pyrazolo[1,5-a]pyrimidine-3-carboxamide]
< 100	< 100	Cc1nn(C)cc1NC(=O)c1c(N)nn2ccc(-c3cc4c(c(NS(C)(=O)=O)c3)C(=O)N([C@@H](C)C3CC3)C4)nc12 [Example 107, 2-Amino-5-{2-[(1S)-1-cyclopropylethyl]-7-methanesulfonamido-1-oxo-2,3-dihydro-1H-isoindol-5-yl}-N-(1,3-dimethyl-1H-pyrazol-4-yl)pyrazolo[1,5-a]pyrimidine-3-carboxamide]
< 100	< 100	Cc1c(NC(=O)c2c(N)nn3ccc(-c4cc5c(c(NS(C)(=O)=O)c4)C(=O)N([C@@H](C)C4CC4)C5)nc23)cnn1C [Example 108, 2-Amino-5-{2-[(1S)-1-cyclopropylethyl]-7-methanesulfonamido-1-oxo-2,3-dihydro-1H-isoindol-5-yl}-N-(1,5-dimethyl-1H-pyrazol-4-yl)pyrazolo[1,5-a]pyrimidine-3-carboxamide]
100 to 1000	< 100	C[C@@H](C1CC1)N1Cc2cc(-c3ccn4nc(N)c(C(=O)Nc5ncn(C)n5)c4n3)cc(NS(C)(=O)=O)c2C1=O [Example 109, 2-Amino-5-{2-[(1S)-1-cyclopropylethyl]-7-methanesulfonamido-1-oxo-2,3-dihydro-1H-isoindol-5-yl}-N-(1-methyl-1H-1,2,4-triazol-3-yl)pyrazolo[1,5-a]pyrimidine-3-carboxamide]
< 100	< 100	CCS(=O)(=O)Nc1cc(-c2ccn3nc(N)c(C(=O)NC4CC4)c3n2)cc2c1C(=O)N([C@@H](C)C1CC1)C2 [Example 110, 2-Amino-N-cyclopropyl-5-{2-[(1S)-1-cyclopropylethyl]-7-ethanesulfonamido-1-oxo-2,3-dihydro-1H-isoindol-5-yl}pyrazolo[1,5-a]pyrimidine-3-carboxamide]
< 100	< 100	CCS(=O)(=O)Nc1cc(-c2ccn3nc(N)c(C(=O)N[C@H]4C[C@](C)(O)C4)c3n2)cc2c1C(=O)N([C@@H](C)C1CC1)C2 [Example 111, 2-Amino-5-{2-[(1S)-1-cyclopropylethyl]-7-ethanesulfonamido-1-oxo-2,3-dihydro-1H-isoindol-5-yl}-N-[trans-3-hydroxy-3-methylcyclobutyl]pyrazolo[1,5-a]pyrimidine-3-carboxamide]
< 100	< 100	CCS(=O)(=O)Nc1cc(-c2ccn3nc(N)c(C(=O)Nc4cccnc4)c3n2)cc2c1C(=O)N([C@@H](C)C1CC1)C2 [Example 112, 2-Amino-5-{2-[(1S)-1-cyclopropylethyl]-7-ethanesulfonamido-1-oxo-2,3-dihydro-1H-isoindol-5-yl}-N-(pyridin-3-yl)pyrazolo[1,5-a]pyrimidine-3-carboxamide]
< 100	< 100	COCCS(=O)(=O)Nc1cc(-c2ccn3nc(N)c(C(=O)NC4CC4)c3n2)cc2c1C(=O)N([C@@H](C)C1CC1)C2 [Example 113, 2-Amino-N-cyclopropyl-5-{2-[(1S)-1-cyclopropylethyl]-7-(2-methoxyethanesulfonamido)-1-oxo-2,3-dihydro-1H-isoindol-5-yl}pyrazolo[1,5-a]pyrimidine-3-carboxamide]
< 100	< 100	C[C@@H](C1CC1)N1Cc2cc(-c3ccn4nc(N)c(C(=O)NC5CC5)c4n3)cc(N(C)S(C)(=O)=O)c2C1=O [Example 114, 2-Amino-N-cyclopropyl-5-{2-[(1S)-1-cyclopropylethyl]-7-(N-methylmethanesulfonamido)-1-oxo-2,3-dihydro-1H-isoindol-5-yl}pyrazolo[1,5-a]pyrimidine-3-carboxamide]
< 100	< 100	C[C@H](N1Cc2cc(-c3ccn4nc(N)c(C(=O)NC5CC5)c4n3)cc(NS(C)(=O)=O)c2C1=O)C(F)(F)F [Example 115, 2-Amino-N-cyclopropyl-5-{7-methanesulfonamido-1-oxo-2-[(2S)-1,1,1-trifluoropropan-2-yl]-2,3-dihydro-1H-isoindol-5-yl}pyrazolo[1,5-a]pyrimidine-3-carboxamide]
< 100	< 100	C[C@H](N1Cc2cc(-c3ccn4nc(N)c(C(=O)NC5COC5)c4n3)cc(NS(C)(=O)=O)c2C1=O)C(F)(F)F [Example 116, 2-Amino-5-{7-methanesulfonamido-1-oxo-2-[(2S)-1,1,1-trifluoropropan-2-yl]-2,3-dihydro-1H-isoindol-5-yl}-N-(oxetan-3-yl)pyrazolo[1,5-a]pyrimidine-3-carboxamide]
< 100	< 100	C[C@H](N1Cc2cc(-c3ccn4nc(N)c(C(=O)NC5(C#N)COC5)c4n3)cc(NS(C)(=O)=O)c2C1=O)C(F)(F)F [Example 117, (S)-2-Amino-N-(3-cyanooxetan-3-yl)-5-(7-(methylsulfonamido)-1-oxo-2-(1,1,1-trifluoropropan-2-yl)isoindolin-5-yl)pyrazolo[1,5-a]pyrimidine-3-carboxamide]
